The record followed here is ChEMBL document CHEMBL1153902, “Investigations of SCIO-469-like compounds for the inhibition of p38 MAP kinase” (Bioorg Med Chem Lett, 2009).

Each structure is given as a SMILES string.

The nature of one assay: Inhibition of p38 MAPK assessed as substrate phosphorylation at 10 uM by ELISA.
Take `CC(=O)c1c(C(=O)N2CCN(Cc3ccc(F)cc3)CC2)[nH]c2ccccc12`: the inhibition was 24%.
Consider `Cn1ccc2cc(NC(=O)N3CCN(Cc4ccc(F)cc4)CC3)ccc21`, for which the inhibition turned out to be 28%.
As for `O=C(c1nc2ccccc2[nH]1)N1CCN(Cc2ccc(F)cc2)CC1`, the inhibition came out at 24%.
The same measure, in the same setting: next, `Fc1ccc(CN2CCN(Cc3cc4ccccc4[nH]3)CC2)cc1`: 25%; `CC(=O)c1ccc2[nH]c(C(=O)N3CCN(Cc4ccc(F)cc4)CC3)cc2c1`: 45%; `O=C(c1ccco1)N1CCN(Cc2ccccc2)CC1`: 20%.
On the same count and under the same terms, next, `CN(C)C(=O)C(=O)c1cn(C)c2ccc(NC(=O)N3CCN(Cc4ccc(F)cc4)CC3)cc12`: 12%; `O=C(c1cc2c(Br)cccc2[nH]1)N1CCN(Cc2ccc(F)cc2)CC1`: 34%; `O=C(c1ccco1)N1CCN(Cc2ccc(F)cc2)CC1`: 35%.
Consider `O=C(c1cn2ccccc2n1)N1CCN(Cc2ccc(F)cc2)CC1`, for which the inhibition was found to be 33%.
In the case of `CC(C)(C)OC(=O)n1ccc2cc(CNC(=O)N3CCN(Cc4ccc(F)cc4)CC3)ccc21`, the inhibition was 8%.
With `Cn1c(C(=O)N2CCN(Cc3ccc(F)cc3)CC2)nc2ccccc21`, the inhibition came out at 32%.

A short description of the next assay: Inhibition of p38 MAPK assessed as substrate phosphorylation by ELISA.
With `O=C(c1[nH]c2ccccc2c1I)N1CCN(Cc2ccc(F)cc2)CC1`, the IC50 is 7.47 µM.
With `O=C(c1[nH]c2ccccc2c1Cl)N1CCN(Cc2ccc(F)cc2)CC1`, the concentration for half-maximal inhibition (IC50) is 7.57 µM.
Regarding `O=C(c1cc2ccccc2o1)N1CCC(Cc2ccccc2)CC1`, the IC50 worked out at 1.75 µM.
Consider `O=C(c1cc2ccccc2[nH]1)N1CCC(Cc2ccccc2)CC1`, for which the IC50 was 1.09 µM.
Same read-out and setting: next, `O=C(c1[nH]c2ccccc2c1Br)N1CCN(Cc2ccc(F)cc2)CC1`: 6.46 µM.
As to `Cn1c(C(=O)N2CCN(Cc3ccc(F)cc3)CC2)c(Br)c2ccccc21`, the IC50 was found to be 2.24 µM.
Still for that read-out and setting: then `CC(=O)c1cccc2cc(C(=O)N3CCN(Cc4ccc(F)cc4)CC3)[nH]c12`, with 3.61 µM.
On to `O=C(c1cc2ccccc2[nH]1)N1CCN(Cc2ccccc2)CC1`, for which the IC50 was 5.77 µM.
For the compound `O=C(c1cc2ccccc2o1)N1CCN(Cc2ccc(F)cc2)CC1`, the concentration for half-maximal inhibition (IC50) is 8.42 µM.
On the same count and under the same terms, then `CC(=O)c1ccc2[nH]c(C(=O)N3CCN(Cc4ccc(F)cc4)CC3)c(Cl)c2c1`, with 6.51 µM; and `O=C(c1cc2ccccc2[nH]1)N1CCN(Cc2ccc(F)cc2)CC1`, with 3.2 µM; and `CC(=O)c1cccc2c(Cl)c(C(=O)N3CCN(Cc4ccc(F)cc4)CC3)[nH]c12`, with 2.46 µM.
On the same count and under the same terms, next, `Cn1c(C(=O)N2CCN(Cc3ccc(F)cc3)CC2)cc2ccccc21`: 1.36 µM.

The next assay can be described thus: Selectivity for p38alpha over p38beta.
Regarding `CN(C)C(=O)C(=O)c1cn(C)c2cc(Cl)c(C(=O)N3CCC(Cc4ccc(F)cc4)CC3)cc12`, the fold change (FC) turned out to be 10.
